How the values were obtained:
[1] = system: Fyn, IR, Lck, Btk; details: cited from earlier work
[2] = system: Ctla4−/− mice; assay: Treatment of Ctla4−/− mice with ITK inhibitors (survival, T cell activation, LN size, tissue infiltration); type: in vivo, mouse; details: BMS509744 at 50 mg/kg, 10n at 1 mg/kg and 10 mg/kg, starting at 10 days of age; FIG. 5A
Method: Control mice (n=10) were injected with solvent alone. […] Data are representative of three experiments with 4-10 mice in each group per experiment.

[3] = biological target: T1, ITK (Homo sapiens, UniProt Q08881); details: ATP-competitive; cited from earlier work
T1 sequence (Q08881 1-620): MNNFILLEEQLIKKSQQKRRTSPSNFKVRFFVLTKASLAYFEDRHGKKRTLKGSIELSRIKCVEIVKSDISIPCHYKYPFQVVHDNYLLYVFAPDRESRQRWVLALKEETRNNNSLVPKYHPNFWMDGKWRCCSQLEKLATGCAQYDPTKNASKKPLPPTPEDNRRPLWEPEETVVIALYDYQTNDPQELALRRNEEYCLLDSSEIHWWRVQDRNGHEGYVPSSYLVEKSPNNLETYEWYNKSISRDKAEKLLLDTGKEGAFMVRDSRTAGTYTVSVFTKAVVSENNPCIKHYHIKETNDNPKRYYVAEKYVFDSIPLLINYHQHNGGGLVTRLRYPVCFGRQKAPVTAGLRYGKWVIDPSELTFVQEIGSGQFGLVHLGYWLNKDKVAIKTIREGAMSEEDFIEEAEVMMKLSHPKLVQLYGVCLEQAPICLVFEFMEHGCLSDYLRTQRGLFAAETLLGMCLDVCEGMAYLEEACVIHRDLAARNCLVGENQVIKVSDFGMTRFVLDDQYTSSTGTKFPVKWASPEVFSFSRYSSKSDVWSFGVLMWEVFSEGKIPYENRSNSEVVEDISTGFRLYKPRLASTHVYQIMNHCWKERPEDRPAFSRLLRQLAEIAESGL

[4] = system: 14 other kinases; details: cited from earlier work
[5] = system: SVEC4-10 cells; assay: Trans-endothelial migration assay across SVEC4-10 endothelial cells; type: cell-based, mouse; details: DKO LN cells pre-activated with Ionomycin 2 μg/ml for 2 hours; FIG. 8F

Structure (SMILES): COc1cc(C)c(Sc2cnc(NC(=O)c3ccc(CNC(C)C(C)(C)C)cc3)s2)cc1C(=O)N1CCN(C(C)=O)CC1 (centres unmarked) [BMS509744]
- inhibition of Fyn, IR, Lck, Btk [1]: only at high concentrations
- lifespan of Ctla4−/− mice [2]: significantly increased their lifespan
- inhibition of ITK kinase activity [3]: potently inhibits ITK kinase activity
- activity against 14 other kinases [4]: little or no activity

Structure (SMILES): C[C@H](CCC(=O)O)C[C@H](C)C[C@H](C)C(=O)/C=C(\O)[C@H](C)C[C@H](C)C/C=C/[C@@H](C)[C@@H](O)[C@@H](C)[C@@H](O)C[C@@H]1CC[C@@](C)([C@H]2CC[C@@](C)([C@@H](C)O)O2)O1 [Ionomycin]
- frequency of DKO T cells migrating across the endothelium [5]: increased the frequency of DKO T cells that were able to migrate across the endothelium
